Experiment [1] concerns the target T1, α2/β1/ε GABAA receptors (Homo sapiens, UniProt P18505+P47869+P78334, S102A).
T1 sequence (P47869 29-451): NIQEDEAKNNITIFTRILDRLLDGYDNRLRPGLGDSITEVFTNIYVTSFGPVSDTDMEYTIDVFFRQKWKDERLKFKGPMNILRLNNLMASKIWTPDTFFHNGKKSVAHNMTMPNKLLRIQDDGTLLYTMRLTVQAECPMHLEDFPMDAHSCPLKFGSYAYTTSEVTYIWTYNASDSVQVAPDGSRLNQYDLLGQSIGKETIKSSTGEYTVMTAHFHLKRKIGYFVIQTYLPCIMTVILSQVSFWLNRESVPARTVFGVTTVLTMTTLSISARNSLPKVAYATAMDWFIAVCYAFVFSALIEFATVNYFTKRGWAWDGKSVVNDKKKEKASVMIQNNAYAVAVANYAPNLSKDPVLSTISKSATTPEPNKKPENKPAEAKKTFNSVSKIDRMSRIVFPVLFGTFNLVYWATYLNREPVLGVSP
T1 sequence (P18505 26-474): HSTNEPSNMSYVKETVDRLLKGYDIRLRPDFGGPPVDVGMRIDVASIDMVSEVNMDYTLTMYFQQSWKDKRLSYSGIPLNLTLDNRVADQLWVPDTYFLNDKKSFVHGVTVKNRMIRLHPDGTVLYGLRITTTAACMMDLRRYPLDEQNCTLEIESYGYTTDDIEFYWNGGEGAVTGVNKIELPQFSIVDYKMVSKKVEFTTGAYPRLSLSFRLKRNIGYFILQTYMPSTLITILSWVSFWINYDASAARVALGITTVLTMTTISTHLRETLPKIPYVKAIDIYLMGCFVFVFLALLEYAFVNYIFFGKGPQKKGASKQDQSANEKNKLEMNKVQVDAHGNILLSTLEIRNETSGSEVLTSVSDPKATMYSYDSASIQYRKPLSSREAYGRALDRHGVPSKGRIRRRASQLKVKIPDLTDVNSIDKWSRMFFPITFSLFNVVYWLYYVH
T1 sequence (P78334 23-506 S102A): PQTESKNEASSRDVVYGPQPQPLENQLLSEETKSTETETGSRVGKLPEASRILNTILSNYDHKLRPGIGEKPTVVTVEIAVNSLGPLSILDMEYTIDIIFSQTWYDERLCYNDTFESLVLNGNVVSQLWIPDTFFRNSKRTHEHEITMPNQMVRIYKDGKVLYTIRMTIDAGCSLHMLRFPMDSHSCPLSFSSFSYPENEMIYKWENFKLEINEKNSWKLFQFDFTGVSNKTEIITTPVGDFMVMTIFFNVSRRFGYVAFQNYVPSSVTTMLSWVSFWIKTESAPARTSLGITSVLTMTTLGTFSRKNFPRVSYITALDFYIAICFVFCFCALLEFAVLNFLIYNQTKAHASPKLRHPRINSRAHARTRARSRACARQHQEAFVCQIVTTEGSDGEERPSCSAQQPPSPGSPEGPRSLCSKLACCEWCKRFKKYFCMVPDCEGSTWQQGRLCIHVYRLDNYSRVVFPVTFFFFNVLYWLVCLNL
The conditions noted are these: α2/β1/ε subunits.

Experiment [2] addresses T1, α2/β1/ε GABAA receptors. The class given is cell-based. Also on record: The ε-subunit open reading frame was amplified from a hippocampal cDNA library; expressed in transfected cells; host or cells: HEK-293 (transient, calcium phosphate). The conditions noted are these: for Block of GABA-evoked currents: inhibitor 10 μM, bath applied.
The test system of another experiment is α/β/ε GABAA receptors. Nature of the experiment: Benzodiazepine radioligand binding to membranes of cells transfected with α-, β- and ε-subunits. Also on record: species or system human, rat. The conditions noted are these: radioligand 1–50 nM.
In a further experiment the target is T2, α1/β3/ε GABAA receptors (UniProt P28472+P62813+P78334, S102A).
T2 construct: The ε-subunit open reading frame was amplified from a hippocampal cDNA library; expressed in transfected cells; host or cells: HEK-293 (transient, calcium phosphate); membranes prepared from the transfected cells
Also on record: species or system rat α1, human β3, human ε. The note with it: α1/β3/ε subunits; read-out: Maximal stimulation of [3H]muscimol binding to cell membranes.

Experiment [3] deals with α/β/ε GABAA receptors (α2/β1/ε or α1/β3/ε).

For 5α-pregnan-3α-ol-20-one [pregnanolone], the “Effect on [35S]TBPS binding” value at α2/β1/ε GABAA receptors [1] was “no stimulatory phase”. Moreover, on α2/β1/ε GABAA receptors [2] (concentrations up to 100 nM, α2/β1/ε), the “Effect on submaximal GABA-activated currents” value is on record as “No significant effects”. Further, the “Potentiation of submaximal GABA-activated currents” value on α2/β1/ε GABAA receptors [2] (high concentrations of the steroid, α2/β1/ε) is “up to 73%”. `NCCCC(=O)O` [GABA, γ-aminobutyric acid]: the “Reversal potential of GABA-evoked currents” value at α2/β1/ε GABAA receptors [2] (100 μM GABA, α2/β1/ε, linear fit) was determined as 5.7 mV. For the same molecule, the “Hill slope of GABA concentration-response” value at α2/β1/ε GABAA receptors [2] (α2/β1/ε cDNAs) was determined as 1.1.

`CCOC(=O)c1ncn2c1CN(C)C(=O)c1cc(F)ccc1-2` [[^3H]flumazenil, flumazenil]: in the experiment with α/β/ε GABAA receptors, the “Binding to transfected cell membranes” value is “did not bind”. The same measure, in the same setting: under `CN1C(=O)CN=C(c2ccccc2F)c2cc([N+](=O)[O-])ccc21` [[^3H]flunitrazepam, flunitrazepam] stands “did not bind”. In the case of `CN1CCc2cc3c(cc2[C@H]1[C@@H]1OC(=O)c2c1ccc1c2OCO1)OCO3` [bicuculline], the “Block of GABA-evoked currents” value at α2/β1/ε GABAA receptors [2] (α2/β1/ε) turned out to be 73.6±9.3%. As for `CCCC(C)C1(CC)C(=O)NC(=O)NC1=O` (stereo not drawn) [pentobarbital], the Emax on α1/β3/ε GABAA receptors is less than 15%. Further, the “Enhancement of GABA-evoked currents” value in experiment [3] was “blocked the ability”. Take `CC(C)c1cccc(C(C)C)c1O` [propofol, 2,6-diisopropylphenol]: the “Enhancement of GABA-evoked currents” value in experiment [3] is listed as “blocked the ability”. For the molecule picrotoxin, the “Block of GABA-evoked currents” value at α2/β1/ε GABAA receptors [2] (α2/β1/ε) amounted to 82.5±7.4%.
